From patent publication US10668056B2, “Pharmaceutical composition comprising indole derivatives, process for preparation and use thereof” (VIVOLUX AB, priority 2015, dated 2020)

Experiments:
[1] = Stability study of lyophilised powder, 2-8° C.; assay type: physicochemical; conditions: for Any individual purity / Assay / RRT 1.13 (impurity) / RRT 1.23-1.24 (impurity) / RRT 1.47-1.51 (impurity) / Specified impurity* (hydrolysis impurity) / Total impurities / Water content / Z-isomer RRT 0.92-0.93 / pH: 2-8° C.
[2] = Stability of compound A2 in aqueous media; assay type: physicochemical
Protocol: Also, it is understood that the pH is of significance for the stability of compound A2 in aqueous media with the best stability at pH around 1-4, higher concentration of the substance results in lower pH. 1 mg/ml of said aqueous solution has a pH about 2-3.

[3] = Solubility of lyophilisate in water; assay type: physicochemical
Protocol: Glucose and mannitol were evaluated as excipients, both alone and in combination with NaCl. The best result regarding solubility, texture of the lyophilised cake and suppression of impurity formation was obtained with 5% (w/v) mannitol as additive.
The best result concerning formation of impurities and texture of the freeze dried cake was obtained with the freeze drying cycle described in Table 3 and the mannitol content set at 5%.

[4] = Stability study of lyophilised powder, accelerated 25° C./60% RH
Protocol: The stability study of the di-hydrochloride ethanol co-crystal precipitate and of the lyophilized di-hydrochloride salt was conducted in accordance with the International Conference on Harmonizations (ICH) guideline Q1A (R2) Stability Testing of New Drug Substances and Products. All analytical instruments used to analyze the stability samples during the study are qualified in compliance with current cGMP.
The LOQ is 0.05%, peaks <than LOQ was recorded as <0.05%.

SMILES: CC(=NNc1nnc2c(n1)[nH]c1c(C)cccc12)c1ccccn1.Cl.Cl [Compound A2]
- appearance ([1]; 2-8° C. up to 24 months): yellow to orange freeze dried cake during the whole test period
- appearance after reconstitution ([1]; 2-8° C. up to 24 months): yellow to orange solution without visible particles
- Any individual purity ([1]; 0 months): 0.4%
- Assay ([1]; 0 months): 97.8 % w/w
- RRT 1.13 (impurity) ([1]; 0 months): 0.05%
- RRT 1.23-1.24 (impurity) ([1]; 0 months): 0.06%
- RRT 1.47-1.51 (impurity) ([1]; 0 months): 0.37%
- Specified impurity* (hydrolysis impurity) ([1]; 0 months): <0.5%
- Total impurities ([1]; 0 months): 0.7%
- Water content ([1]; 0 months): 0.33%
- Z-isomer RRT 0.92-0.93 ([1]; 0 months): 0.1%
- pH ([1]; 0 months): 1.6
- Any individual purity ([1]; 1 month): 0.3%
- Assay ([1]; 1 month): 98.4 % w/w
- RRT 1.13 (impurity) ([1]; 1 month): <0.05%
- RRT 1.23-1.24 (impurity) ([1]; 1 month): 0.05%
- RRT 1.47-1.51 (impurity) ([1]; 1 month): 0.32%
- Specified impurity* (hydrolysis impurity) ([1]; 1 month): <0.05%
- Total impurities ([1]; 1 month): 0.5%
- Water content ([1]; 1 month): 0.41%
- Z-isomer RRT 0.92-0.93 ([1]; 1 month): 0.1%
- pH ([1]; 1 month): 1.6
- Any individual purity ([1]; 3 months): 0.1%
- Assay ([1]; 3 months): 95.9 % w/w
- RRT 1.13 (impurity) ([1]; 3 months): <0.05%
- RRT 1.23-1.24 (impurity) ([1]; 3 months): 0.08%
- RRT 1.47-1.51 (impurity) ([1]; 3 months): 0.05%
- Specified impurity* (hydrolysis impurity) ([1]; 3 months): <0.05%
- Total impurities ([1]; 3 months): 0.3%
- Water content ([1]; 3 months): 0.47%
- Z-isomer RRT 0.92-0.93 ([1]; 3 months): 0.1%
- pH ([1]; 3 months): 1.6
- Any individual purity ([1]; 6 months): 0.1%
- Assay ([1]; 6 months): 97.3 % w/w
- RRT 1.13 (impurity) ([1]; 6 months): <0.05%
- RRT 1.23-1.24 (impurity) ([1]; 6 months): 0.05%
- RRT 1.47-1.51 (impurity) ([1]; 6 months): <0.05%
- Specified impurity* (hydrolysis impurity) ([1]; 6 months): 0.08%
- Total impurities ([1]; 6 months): 0.4%
- Water content ([1]; 6 months): 0.37%
- Z-isomer RRT 0.92-0.93 ([1]; 6 months): 0.1%
- pH ([1]; 6 months): 1.5
- Any individual purity ([1]; 12 months): 0.1%
- Assay ([1]; 12 months): 93.9 % w/w
- RRT 1.13 (impurity) ([1]; 12 months): <0.05%
- RRT 1.23-1.24 (impurity) ([1]; 12 months): 0.06%
- RRT 1.47-1.51 (impurity) ([1]; 12 months): <0.05%
- Specified impurity* (hydrolysis impurity) ([1]; 12 months): 0.08%
- Total impurities ([1]; 12 months): 0.2%
- Water content ([1]; 12 months): 0.53%
- Z-isomer RRT 0.92-0.93 ([1]; 12 months): <0.05%
- pH ([1]; 12 months): 1.6
- Any individual purity ([1]; 18 months): 0.1%
- Assay ([1]; 18 months): 94.6 % w/w
- RRT 1.13 (impurity) ([1]; 18 months): 0.05%
- RRT 1.23-1.24 (impurity) ([1]; 18 months): 0.05%
- RRT 1.47-1.51 (impurity) ([1]; 18 months): 0.05%
- Specified impurity* (hydrolysis impurity) ([1]; 18 months): 0.10%
- Total impurities ([1]; 18 months): 0.3%
- Water content ([1]; 18 months): 0.43%
- Z-isomer RRT 0.92-0.93 ([1]; 18 months): <0.05%
- pH ([1]; 18 months): 1.6
- Any individual purity ([1]; 24 months): 0.10%
- Assay ([1]; 24 months): 94.2 % w/w
- RRT 1.13 (impurity) ([1]; 24 months): <LOQ
- RRT 1.23-1.24 (impurity) ([1]; 24 months): 0.05%
- RRT 1.47-1.51 (impurity) ([1]; 24 months): 0.10%
- Specified impurity* (hydrolysis impurity) ([1]; 24 months): 0.09%
- Total impurities ([1]; 24 months): 0.34%
- Water content ([1]; 24 months): 0.39%
- Z-isomer RRT 0.92-0.93 ([1]; 24 months): 0.05%
- pH ([1]; 24 months): 1.7
- bacterial growth / sterility ([1]; 24 months period): No bacterial growth was detected
- reconstitution time ([1]; Table 4a study): up to 3 minutes
- degradation on storage ([1]; vials crimp sealed under nitrogen, 5° C., 24 months): no degradation was seen
- pH of aqueous solution ([2]; 1 mg/ml): 2-3
- pH of best stability ([2]; aqueous media): 1-4
- time over which formation of by-products is suppressed ([2]; aqueous media, 1 mg/ml): up to 24 hrs
- hydrolysis in aqueous solvents ([2]; aqueous solvents): readily hydrolyses
- solubility in water ([3]; after lyophilisation versus prior to (A1)): less soluble in water
- solubility on addition of NaCl ([3]; increase in pH generated by NaCl): decreased the solubility
- bacterial growth / sterility ([4]; 24 months period in room temperature): No bacterial growth was detected
- appearance ([4]; 25° C./60% RH): yellow to orange freeze dried cake during the whole test period
- appearance after reconstitution ([4]; 25° C./60% RH): yellow to orange solution without visible particles
- reconstitution time ([4]; 25° C./60% RH): up to 3 minutes
- Any individual purity ([4]; 25° C./60% RH, 0 months): 0.4%
- Assay ([4]; 25° C./60% RH, 0 months): 97.8 % w/w
- RRT 1.13 (impurity) ([4]; 25° C./60% RH, 0 months): 0.05%
- RRT 1.23-1.24 (impurity) ([4]; 25° C./60% RH, 0 months): 0.06%
- RRT 1.47-1.51 (impurity) ([4]; 25° C./60% RH, 0 months): 0.37%
- Specified impurity* (hydrolysis impurity) ([4]; 25° C./60% RH, 0 months): <0.5%
- Total impurities ([4]; 25° C./60% RH, 0 months): 0.7%
- Water content ([4]; 25° C./60% RH, 0 months): 0.33%
- Z-isomer RRT 0.92-0.93 ([4]; 25° C./60% RH, 0 months): 0.1%
- pH ([4]; 25° C./60% RH, 0 months): 1.6
- Any individual purity ([4]; 25° C./60% RH, 1 month): 0.1%
- Assay ([4]; 25° C./60% RH, 1 month): 97.2 % w/w
- RRT 1.13 (impurity) ([4]; 25° C./60% RH, 1 month): <0.05%
- RRT 1.23-1.24 (impurity) ([4]; 25° C./60% RH, 1 month): 0.05%
- RRT 1.47-1.51 (impurity) ([4]; 25° C./60% RH, 1 month): 0.13%
- Specified impurity* (hydrolysis impurity) ([4]; 25° C./60% RH, 1 month): 0.1%
- Total impurities ([4]; 25° C./60% RH, 1 month): 0.3%
- Water content ([4]; 25° C./60% RH, 1 month): 0.39%
- Z-isomer RRT 0.92-0.93 ([4]; 25° C./60% RH, 1 month): <0.05%
- pH ([4]; 25° C./60% RH, 1 month): 1.6
- Any individual purity ([4]; 25° C./60% RH, 3 months): 0.2%
- Assay ([4]; 25° C./60% RH, 3 months): 95.4 % w/w
- RRT 1.13 (impurity) ([4]; 25° C./60% RH, 3 months): <0.05%
- RRT 1.23-1.24 (impurity) ([4]; 25° C./60% RH, 3 months): 0.08%
- RRT 1.47-1.51 (impurity) ([4]; 25° C./60% RH, 3 months): 0.05%
- Specified impurity* (hydrolysis impurity) ([4]; 25° C./60% RH, 3 months): <0.05%
- Total impurities ([4]; 25° C./60% RH, 3 months): 0.7%
- Water content ([4]; 25° C./60% RH, 3 months): 0.55%
- Z-isomer RRT 0.92-0.93 ([4]; 25° C./60% RH, 3 months): 0.1%
- pH ([4]; 25° C./60% RH, 3 months): 1.6
- Any individual purity ([4]; 25° C./60% RH, 6 months): 0.1%
- Assay ([4]; 25° C./60% RH, 6 months): 98.3 % w/w
- RRT 1.13 (impurity) ([4]; 25° C./60% RH, 6 months): <0.05%
- RRT 1.23-1.24 (impurity) ([4]; 25° C./60% RH, 6 months): 0.06%
- RRT 1.47-1.51 (impurity) ([4]; 25° C./60% RH, 6 months): <0.05%
- Specified impurity* (hydrolysis impurity) ([4]; 25° C./60% RH, 6 months): 0.08%
- Total impurities ([4]; 25° C./60% RH, 6 months): 0.4%
- Water content ([4]; 25° C./60% RH, 6 months): 0.45%
- Z-isomer RRT 0.92-0.93 ([4]; 25° C./60% RH, 6 months): 0.1%
- pH ([4]; 25° C./60% RH, 6 months): 1.5
- Any individual purity ([4]; 25° C./60% RH, 12 months): 0.1%
- Assay ([4]; 25° C./60% RH, 12 months): 94.6 % w/w
- RRT 1.13 (impurity) ([4]; 25° C./60% RH, 12 months): <0.05%
- RRT 1.23-1.24 (impurity) ([4]; 25° C./60% RH, 12 months): 0.06%
- RRT 1.47-1.51 (impurity) ([4]; 25° C./60% RH, 12 months): <0.05%
- Specified impurity* (hydrolysis impurity) ([4]; 25° C./60% RH, 12 months): 0.08%
- Total impurities ([4]; 25° C./60% RH, 12 months): 0.2%
- Water content ([4]; 25° C./60% RH, 12 months): 0.59%
- Z-isomer RRT 0.92-0.93 ([4]; 25° C./60% RH, 12 months): 0.10%
- pH ([4]; 25° C./60% RH, 12 months): 1.6
- Any individual purity ([4]; 25° C./60% RH, 18 months): 0.1%
- Assay ([4]; 25° C./60% RH, 18 months): 93.9 % w/w
- RRT 1.23-1.24 (impurity) ([4]; 25° C./60% RH, 18 months): 0.06%
- Specified impurity* (hydrolysis impurity) ([4]; 25° C./60% RH, 18 months): 0.10%
- Total impurities ([4]; 25° C./60% RH, 18 months): 0.20%
- Water content ([4]; 25° C./60% RH, 18 months): 0.49%
- Z-isomer RRT 0.92-0.93 ([4]; 25° C./60% RH, 18 months): <0.05%
- pH ([4]; 25° C./60% RH, 18 months): 1.5
- Any individual purity ([4]; 25° C./60% RH, 24 months): 0.10%
- Assay ([4]; 25° C./60% RH, 24 months): 94.5 % w/w
- RRT 1.13 (impurity) ([4]; 25° C./60% RH, 24 months): <LOQ
- RRT 1.23-1.24 (impurity) ([4]; 25° C./60% RH, 24 months): 0.06%
- RRT 1.47-1.51 (impurity) ([4]; 25° C./60% RH, 24 months): 0.09%
- Specified impurity* (hydrolysis impurity) ([4]; 25° C./60% RH, 24 months): 0.10%
- Total impurities ([4]; 25° C./60% RH, 24 months): 0.36%
- Water content ([4]; 25° C./60% RH, 24 months): 0.45%
- Z-isomer RRT 0.92-0.93 ([4]; 25° C./60% RH, 24 months): 0.05%
- pH ([4]; 25° C./60% RH, 24 months): 1.6
- time the lyophilisate is stable ([4]; room temperature): at least 24 months
